Patent US6703020B1 (Board of Regents, The University of Texas System, priority 1999, dated 2004)
One block for each substance: values may come before it.

Assays:
[1] = target: T1, guinea pig VEGF in line 10 guinea pig tumor sections (Cavia porcellus, UniProt P26617); assay: Immunohistochemistry on guinea pig line 10 tumor sections; format: binding; design: key: −, negative; +/−, very weak; 1+, weak; 2+, moderate; 3+, strong; 4+, very strong; conditions: acetone fixed frozen sections; 2C3 and 12D7 at 20 μg/ml, others 5-10 μg/ml
T1 construct: from tissue; host or cells: frozen sections of line 10 hepatocellular carcinoma grown in strain 2 guinea pigs
T1 sequence (P26617 1-164): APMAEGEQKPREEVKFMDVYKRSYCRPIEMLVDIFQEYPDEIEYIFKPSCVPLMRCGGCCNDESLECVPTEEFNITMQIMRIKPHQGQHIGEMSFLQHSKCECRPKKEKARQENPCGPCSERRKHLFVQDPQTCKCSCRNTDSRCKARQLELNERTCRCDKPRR
Procedure: (§1) Guinea pig line 10 hepatocellular carcinoma tumor cells (obtained from Dr. Ronald Neuman, NIH, Bethesda, Md.) were grown in strain 2 guinea pigs (NCI, Bethesda, Md.). The human tumors NCI-H358 non-small cell lung carcinoma (NSCLC), NCI-H460 NSCLC (both obtained from Dr. Adi Gazdar, UT Southwestern, Dallas, Tex.), HT29 colon adenocarcinoma (American Type Culture Collection), and L540CY Hodgkin's lymphoma (obtained from Professor V. Diehl, Cologne, Germany) were grown as xenografts in CB17 SCID mice (Charles River, Wilmington, Mass.).
(§2) Tumors were snap frozen in liquid nitrogen and stored at −70° C. Frozen samples of tumor specimens from patients were obtained from the National Cancer Institute Cooperative Human Tissue Network (Southern Division, Birmingham, Ala.). Immununohistochemistry was performed as described by Burrows et al. (1995).

NCI-H358 NSCLC = assay: In vivo tumor growth inhibition, newly implanted NCI-H358; design: species or system mouse
Procedure: (§3) Nu/nu mice were injected subcutaneously with either 1×10^7 NCI-H358 NSCLC cells or 5×10^6 A673 rhabdomyosarcoma cells on day 0. […] The tumors were then measured twice per wk for a period of approximately six wk for the NCI-H358 bearing mice and four wk for the A673 bearing mice. Tumor volume was calculated according to the formula: volume=L×W×H, where L=length, W=width, H=height.

[2] = system: Human tumor xenografts (NCI-H358 NSCLC, NCI-H460 NSCLC, HT29 colon adenocarcinoma, L540 Hodgkin's lymphoma); assay: Immunohistochemistry on frozen sections of human tumor xenografts; format: binding, mouse; design: key: −, negative; +/−, very weak; 1+, weak; 2+, moderate; 3+, strong; 4+, very strong; conditions: acetone fixed frozen sections; 2C3 and 12D7 at 20 μg/ml, others 5-10 μg/ml
Procedure: as §1, §2
The immunohistochemical reactivity of 3E7, GV39M, and 11B5 on NCI-H358 human NSCLC xenografts was determined and compared with control antibodies (an IgG of irrelevant specificity; A-20, a rabbit anti-VEGF antibody; and MECA 32, a rat anti-mouse endothelial cell antibody). 8 μm frozen sections of NCI-H358 human NSCLC grown in SCID mice were stained using an indirect immunoperoxidase technique and were counterstained with hematoxylin.

[3] = system: NCI-H358 NSCLC and HT29 colon adenocarcinoma xenografts; assay: In vivo localization to human tumor xenografts in mice; design: species or system mouse; key to Immunohistochemical Reactivity Heart / Immunohistochemical Reactivity Lung / Immunohistochemical Reactivity Liver / Immunohistochemical Reactivity Kidney / Immunohistochemical Reactivity Intestine / Immunohistochemical Reactivity Spleen / Immunohistochemical Reactivity Tumor: −, negative; +/−, very weak; 1+, weak; 2+, moderate; 3+, strong; 4+, very strong
VEGFR1 (FLT-1) = assay: ELISA of VEGF binding to VEGFR1-coated wells
[4] = system: A673 rhabdomyosarcoma and LS174T colon adenocarcinoma tumors; assay: Treatment of mice with established A673 and LS174T tumors; format: in vivo, mouse
[5] = system: mouse VEGF in mouse 3LL Lewis Lung carcinoma tumor sections; assay: Immunohistochemistry on mouse 3LL tumor sections; format: binding; design: key: −, negative; +/−, very weak; 1+, weak; 2+, moderate; 3+, strong; 4+, very strong; conditions: acetone fixed frozen sections; 2C3 and 12D7 at 20 μg/ml, others 5-10 μg/ml
Sequence of mouse VEGF in mouse 3LL Lewis Lung carcinoma tumor sections (Q00731 205-317 limits assumed): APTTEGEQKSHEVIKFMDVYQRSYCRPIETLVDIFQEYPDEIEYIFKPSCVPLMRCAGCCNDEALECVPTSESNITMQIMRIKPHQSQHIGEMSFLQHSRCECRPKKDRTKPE
Procedure: as §2
(§4) Tumors examined through immunohistochemistry were human tumors of various types from cancer patients, transplantable human tumor xenografts of various types grown in mice, guinea pig Line 10 tumor grown in guinea pig, and mouse 3LL tumor grown in mice (see legend to Table 3 for details).

HT1080 fibrosarcoma = assay: In vivo tumor therapy of established HT1080 xenografts; design: species or system mouse; conditions: 100 μg every two days
Procedure: (§5) Male nu/nu mice bearing subcutaneous NCI-H358 tumors or HT1080 fibrosarcoma 200-400 mm^3 in size were injected i.p. with test or control antibodies. The NCI-H358 bearing mice were treated with 100 μg of antibodies per injection three times a week during the first week and twice a week during the second and third week. The mice were then switched to 50 μg per injection every five days. The HT1080 bearing mice were treated with 100 μg of the indicated antibody or saline every other day throughout the duration of the study. In both studies, mice were sacrificed when their tumors reached 2500 mm^3 in size or earlier if tumors began to ulcerate.

NCI-H358 NSCLC tumors = assay: In vivo tumor therapy of established NCI-H358 xenografts; design: species or system mouse
Procedure: as §5
Doses were 50-100 μg every 3-5 days. […] In addition to measuring mean tumor volume (FIG. 4), photographs of the mice from each treatment group were also taken to show the differences in tumor size and appearance at the end of the study.

VEGFR2 (KDR/Flk-1) = assay: ELISA of VEGF binding to VEGFR2-coated wells; design: species or system mouse
Human tumors (various) = assay: Immunohistochemistry on frozen sections of human tumors; format: binding; design: key: −, negative; +/−, very weak; 1+, weak; 2+, moderate; 3+, strong; 4+, very strong; conditions: acetone fixed frozen sections; 2C3 and 12D7 at 20 μg/ml, others 5-10 μg/ml
Procedure: as §2, §4

KDR on ABAE cells = assay: 125I-VEGF binding studies on KDR expressing endothelial cells; format: cell-based, bovine
A673 rhabdomyosarcoma = assay: In vivo tumor growth inhibition, newly implanted A673; design: species or system mouse; conditions: 100 μg i.p. 2 times per wk from day 1, nu/nu mice; controls approximately 1000 mm^3
Procedure: as §3

VEGFR2 (KDR/Fc) = assay: Coprecipitation assay, VEGF with VEGFR2/Fc; format: binding; conditions: 40 ng VEGF, 200 ng receptor/Fc
Procedure: 200 ng of soluble forms of VEGFR1 (Flt-1/Fc) or VEGFR2 (KDR/Fc, R&D Systems, Minneapolis, Minn.) were added for a total volume of 50 μl and incubated for 2 hrs. The receptor/Fc constructs were precipitated using Protein A-sepharose beads and the resulting precipitate was washed 4 times with binding buffer.
Reducing sample buffer was added to the pellet and supernatant of each reaction and both were analyzed by 12% SDS-PAGE and transferred to PVDF membranes. […] The soluble receptor/Fc constructs were also detected by using peroxidase-conjugated goat anti-human Fc (Kirkegaard & Perry Laboratories, Inc.)
The receptor/Fc constructs were precipitated by incubation with Protein A sepharose beads. The precipitate was washed and resuspended in reducing sample buffer and separated by 12% SDS-PAGE and transferred to PVDF.

[6] = system: human NCI-H358 NSCLC tumors; assay: Localization of 2C3-GUS in SCID mice bearing NCI-H358 tumors; format: in vivo, mouse
[7] = Blood clearance of radioiodinated 2C3-GUS in mice; format: in vivo, mouse; conditions: intravenous
Description: 2C3-GUS was radioiodinated with ^125I to a specific activity of 5×10^6 cpm/μg.

[8] = tumor-bearing mice, antibody intravenously 24 hours prior to sacrifice

Substance: 2C3: anti-VEGF monoclonal antibody, IgG2a k, hybridoma ATCC PTA 1595; blocks VEGF binding to VEGFR2 but not VEGFR1 [Clone 2C3]
Endothelial Cell Staining Guinea Pig Tumor (Line 10) [1]: −
final tumor volume, NCI-H358 NSCLC (NCI-H358 NSCLC; 100 μg i.p. 2 times per wk from day 1, nu/nu mice, controls approximately 1000 mm^3): approximately 150 mm^3
prevention of tumor growth at lower doses (NCI-H358 NSCLC; 10 or 1 μg twice per wk, NCI-H358 and A673): less effective
Endothelial Cell Staining Xenograft (various) [2]: −
Immunohistochemical Reactivity Tumor ([3]; 2C3: NCI-H358 in nu/nu mice, 3E7, GV39M: HT29 in SCID mice, 24 hours after i.v.): 3+
localization in the HT29 human tumor model ([3]; after i.v. injection): localized strongly to the connective tissue
Immunohistochemical Reactivity Heart [3, 8]: −
Immunohistochemical Reactivity Intestine [3, 8]: −
Immunohistochemical Reactivity Kidney [3, 8]: −
Immunohistochemical Reactivity Liver [3, 8]: −
Immunohistochemical Reactivity Lung [3, 8]: −
Immunohistochemical Reactivity Spleen [3, 8]: −
Blocks VEGF from binding to VEGFR1 (VEGFR1 (FLT-1)): No
growth of established A673 rhabdomyosarcoma and LS174T colon adenocarcinoma tumors [4]: significantly slowed
Endothelial Cell Staining Mouse Tumor (3LL) [5]: −
growth of HT1080 tumors (HT1080 fibrosarcoma): arrested the growth
mean tumor volume after approximately 14 wk of treatment (NCI-H358 NSCLC tumors; established NCI-H358, 100 μg, prolonged treatment): 84 mm^3
mean tumor volume at the end of the study, % of the initial mean tumor volume (NCI-H358 NSCLC tumors; established NCI-H358, 50-100 μg i.p. every 3-5 days, approximately 10 weeks): 30%
decrease in mean tumor volume (NCI-H358 NSCLC tumors; established NCI-H358, approximately 14 wk): approximately 80%
mean tumor weight (NCI-H358 NSCLC tumors; established NCI-H358, end of the study (day 116)): 0.054 g
Blocks VEGF from binding to VEGFR2 (VEGFR2 (KDR/Flk-1)): Yes
effect on VEGF binding to VEGFR2 in ELISA (VEGFR2 (KDR/Flk-1); 100-1000 fold excess): blocked
amount VEGF that bound to VEGFR2-coated ELISA wells maintained at (VEGFR2 (KDR/Flk-1); 100 fold molar excess over VEGF): about 92%
amount VEGF that bound to VEGFR2-coated wells, % of amount bound in absence of antibody (VEGFR2 (KDR/Flk-1); 1000-fold molar excess over VEGF (1 nM)): ~19%
Endothelial Cell Staining Hu Tumor (various) (Human tumors (various)): −
blocking of 125I-VEGF binding to KDR (KDR on ABAE cells): blocks VEGF from binding to KDR in a concentration dependent manner
final tumor volume, A673 rhabdomyosarcoma (A673 rhabdomyosarcoma): approximately 150 mm^3

blocking of binding of VEGF to VEGFR2/Fc in solution (VEGFR2 (KDR/Fc)): blocked
Substance: 2C3 F(ab′)2: F(ab′)2 of 2C3

Substance: 2C3-GUS [Clone 2C3-GUS]
localization after i.v. injection ([6]; SCID mice, subcutaneous NCI-H358): specifically localized to tumor vasculature and surrounding tumor stroma
staining of normal tissues ([6]; mouse, in vivo, sc): unstained
t½ α of clearance from the blood [7]: about 6 hours
t½ β of clearance from the blood [7]: about 25 hours
